Measured values taken from ChEMBL document CHEMBL1126923, “Novel inhibitors of prolyl 4-hydroxylase. 5. The intriguing structure-activity relationships seen with 2,2'-bipyridine and its 5,5'-dicarboxylic acid derivatives” (J Med Chem, 1993).

Key:
[1] = test system: Prolyl 4-hydroxylase (Gallus gallus); assay: Inhibition of prolyl 4-hydroxylase by chromatographic determination of [14C]-succinic acid on ion-exchange minicolumna at 50 ug/mL
[2] = test system: Prolyl 4-hydroxylase (Gallus gallus); assay: Inhibition of prolyl 4-hydroxylase by chromatographic determination of [14C]-succinic acid on ion-exchange minicolumna at 100 ug/mL

Row | inhibition [1] [%] | inhibition [2] [%] | SMILES
1 | 13 |  | CCOc1ccc(NC(=O)c2ccc(-c3ccccn3)nc2)cc1
2 |  | 13 | CCOc1ccc(NC(=O)c2ccc(-c3ccc(C(=O)Nc4ccc(OCC)cc4)cn3)nc2)cc1
